From PubChem BioAssay AID849 (SRMLSC, 2007)
pIC50: −log10 of the molar value. The source made the active and inactive calls. No rule for the calls is given here.

What follows are molecules tested on Saccharomyces cerevisiae lifespan shortening, growth inhibition (assay: Saccharomyces cerevisiae growth inhibition potency – dose response (AID 849);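 also: yeast growth read as optical density after two days at 30 degrees C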).

SMILES | IC50 | pIC50
Cc1ccccc1OCCCN1C(=O)C(=O)c2cccc(C)c21 | > 100 µM (inactive) | –
NC(=O)c1sc2nc(-c3ccco3)ccc2c1N | > 100 µM (inactive) | –
O=c1c2ccccc2nc2sc3ccccc3n12 | – | 4.56
OC(CNCCc1ccc(C(F)(F)F)cc1)COc1ccc2ccccc2c1 (configuration not stated) | > 100 µM (inactive) | –
CC(C)(C)n1nc(-c2ccc(F)cc2)c2c(N)ncnc21 | – | > 7.01
CC12C(=O)N(c3cccc4cccnc34)C(=O)C1C1C=CC2C1 (configuration not stated) | > 100 µM (inactive) | –
O=[N+]([O-])c1ccc(C2Oc3ccccc3C3CC(c4ccccc4)=NN32)s1 (configuration not stated) | > 100 µM (inactive) | –
CC1Cc2ccccc2N1C(=O)CSC1=NCCS1 (configuration not stated) | > 100 µM (inactive) | –
CCOC(=O)N1CCN(C(=O)Cn2nc(C)c3sc4ccccc4c3c2=O)CC1 | > 100 µM (inactive) | –
CCc1ccc(S(=O)(=O)NCCc2cn3ccsc3n2)s1 | > 100 µM (inactive) | –
O=C(O)CCC(=O)N1CCN(c2nc(-c3ccccc3Cl)c3cc(Br)ccc3n2)CC1 | – | 4.53
c1ccc(-c2nc(-n3ccnc3)nc(-n3ccnc3)n2)cc1 | – | 4.47
COc1ccc(-c2nnc3sc(C(C)N4C(=O)c5ccccc5C4=O)nn23)cc1 (configuration not stated) | > 100 µM (inactive) | –
CCOC(=O)c1cnc(-n2nc(C)cc2C)nc1NC1CCCCC1 | – | 4.70
CC(C)(C)c1cc(NCCCn2ccnc2)n2ncc(-c3ccc(Cl)cc3)c2n1 | > 100 µM (inactive) | –
OC(CNCC1CCCO1)Cn1c2ccc(Br)cc2c2cc(Br)ccc21 (configuration not stated) | > 100 µM (inactive) | –
COc1cccc2sc(Nc3nc(-c4ccccn4)cs3)nc12 | – | 4.69
Cc1cccc(OCCn2cc(/C=N/NC(=O)c3ccncc3)c3ccccc32)c1 | > 100 µM (inactive) | –
Oc1c(Cl)cc(Cl)c(Cl)c1Cc1c(O)c(Cl)cc(Cl)c1Cl | > 100 µM (inactive) | –
CCCCC(=O)NNC(=S)NC(=O)CCC | – | 4.49
CCCCCCN1N=C(C)C(C(=O)c2ccc(Cl)cc2)C1=O (configuration not stated) | – | 4.79

SMILES | IC50 | pIC50
COc1ccc(-c2cc(=O)n(-c3nc4ccccc4[nH]3)[nH]2)cc1 | – | 4.90
O=C1c2cccc3cccc(c23)C(=O)N1c1cccnc1 | – | 4.53
CCOc1cc(C2CC(=O)N3CN(C4CCCCC4)CSC3=C2C#N)ccc1O (configuration not stated) | > 100 µM (inactive) | –
COc1ccccc1-c1nnc(NC(=O)C(C)SC2=NCCS2)s1 (configuration not stated) | > 100 µM (inactive) | –
COc1ccccc1C(=O)NNC(=S)NC(=O)c1ccco1 | > 100 µM (inactive) | –
CCC(C)/C(C)=N/NC(=O)c1ccc(COc2ccc(Cl)c(C)c2)cc1 (configuration not stated) | – | 4.66
Cc1onc(-c2ccccc2)c1C(=O)NC(=S)NNC(=O)c1ccc(O)cc1O | > 100 µM (inactive) | –
N/C(Cc1ccc(Cl)c(Cl)c1)=N\OC(=O)c1cccs1 | > 100 µM (inactive) | –
O=C(c1ccc(C(=O)N2CCCc3ccccc32)s1)N1CCCc2ccccc21 | – | 4.45
COc1ccc(-c2[nH]ncc2-c2ccc(Cl)cc2)c(O)c1 | > 100 µM (inactive) | –
c1cn2cc(-c3ccc4c(c3)OCO4)nc2s1 | > 100 µM (inactive) | –
FC(F)Sc1ccc(Nc2ncnc3nc[nH]c23)cc1 | > 100 µM (inactive) | –
N#CC(c1cccc(Cl)c1)c1ccc2c(C(F)(F)F)cc(C(F)(F)F)nc2n1 (configuration not stated) | > 100 µM (inactive) | –
OCCN(CCO)CC(O)COc1ccc(C23CC4CC(CC(C4)C2)C3)cc1 (configuration not stated) | – | 4.45
O=C1CSC(=S)N1c1cccnc1 | – | 4.50
Oc1c(CN2CCN(c3ccc(F)cc3)CC2)cc(Cl)c2cccnc12 | – | 4.99
COc1ccc(N/N=C(\C#N)C(N)=O)cc1 | > 100 µM (inactive) | –
CCOC(=O)c1c(NC(=S)Nc2ccc(Cl)cc2)sc2c1CCN(C)C2 | – | 5.11
CC1CCc2c(sc3nc(CN4CCOCC4)nc(Sc4ccccc4)c23)C1 (configuration not stated) | > 100 µM (inactive) | –
CCCn1c(CNc2ccccc2O)nc2ccccc21 | > 100 µM (inactive) | –
Cc1cc(N2CCN(C(=O)c3ccco3)CC2)n2ncc(-c3ccccc3)c2n1 | > 100 µM (inactive) | –

SMILES | IC50 | pIC50
CN(O)/C=c1/ccc2c(n1)C(=O)C=CC=2 | – | 5.09
CCOc1ccc(/C=C/C(=O)c2cc(Br)ccc(=O)c2O)cc1 | – | 4.94
Cc1cc(C)nc(/N=c2/ssnc2Cl)c1 | > 100 µM (inactive) | –
O=C(O)c1cc2ccc3ccccc3c2oc1=O | – | 4.69
CC(C)(C)C(O)C(Oc1ccc(Cl)cc1)n1cncn1 (configuration not stated) | – | 5.50
CCOC(=O)C(=NCCCN(C)C)NNc1ccc(Br)cc1 | – | 4.95
COc1ccccc1N1CCN(Cc2cc(Br)c(O)c3ncccc23)CC1 | – | 4.80
Cc1cc([N+](=O)[O-])ccc1-c1ccc(C2Nc3ccccc3C(=O)N2O)o1 (configuration not stated) | > 100 µM (inactive) | –
Clc1ccc(CSC(Cn2ccnc2)c2ccc(Cl)cc2Cl)cc1 (configuration not stated) | – | 6.28
O=C(/C(=N/N=C/c1ccc(O)c(O)c1O)c1ccccc1)c1ccccc1 | – | 4.59
Cc1ccc2c(c1)C(=NC1CCCCC1)c1cc3ccccc3nc1-2 | – | 4.38
Cc1ccc(N/N=C/c2c(O)cc(C)oc2=O)cc1 | – | 4.61
O=C(Cc1cccs1)NNC(=S)NC(=O)c1ccccc1 | > 100 µM (inactive) | –
c1ccc(-c2ccc(-c3ccccn3)nn2)nc1 | – | 4.31
CCc1nc2ccccc2c(=O)n1NC(=O)c1c(O)c2cccc3c2n(c1=O)CCC3 | > 100 µM (inactive) | –
Fc1ccc2nc3[nH]c4ccccc4c3nc2c1 | – | 4.40
Cc1cc(C(=O)COC(=O)c2ccc[nH]c2=O)c(C)n1-c1ccc(Br)cc1 | > 100 µM (inactive) | –
N#CCSc1nc2ccccc2c2nc3ccccc3n12 | – | 4.53
Cc1cc(O)c(/C=N/Nc2ccccc2)c(=O)o1 | – | 4.60
O=[N+]([O-])c1ccc(N=Nc2ccc(O)cc2O)cc1 | – | 4.50
COc1ccc(CNC(=O)CSc2nnc(-c3ccc(NC(C)=O)cc3)n2C)cc1 | > 100 µM (inactive) | –

SMILES | IC50 | pIC50
S=C1SCN(Cc2ccccn2)CN1Cc1ccco1 | – | 4.67
O=C(O)c1cc(-c2ccc(/C=N/Nc3ccc(Cl)cc3)o2)ccc1Cl | – | 4.93
O=C(Nc1nc(-c2ccccn2)cs1)C1COc2ccccc2O1 (configuration not stated) | – | 4.90
Oc1c(CN2CCN(c3ccccn3)CC2)cc(Cl)c2cccnc12 | – | 4.43
Cc1cccc(N=C2Sc3nc4c(C)c(C)ccc4cc3CN2CCN2CCOCC2)c1 | – | 4.35
CCSc1nc2ccccc2n1S(=O)(=O)c1ccccc1 | > 100 µM (inactive) | –
CCc1ccc2c(c1)C1(NN=C(c3ccc(C)cc3)S1)C(=O)N2 (configuration not stated) | – | 4.62
CCc1ccc2c(c1)C1(NN=C(c3cccc4ccccc34)S1)C(=O)N2 (configuration not stated) | – | 4.38
O=[N+]([O-])c1ccc(O)c2ncccc12 | – | 6.24
COc1cccc2c(=O)c3c(cnn3C)n(C)c12 | – | 4.93
COC1=C(c2ccccc2)C(=O)c2ccccc2C1=O | – | 4.79
O=C(c1c[nH]c(C(=O)C(Cl)(Cl)Cl)c1)c1ccccc1Cl | > 100 µM (inactive) | –
O=C(CC(O)(C(F)(F)F)C(F)(F)F)Nc1ccc(Cl)c(Cl)c1 | – | 4.92
N/C(Cc1ccc(Cl)cc1)=N\OC(=O)c1cccc2ccccc12 | – | 4.39
Fc1ccc(Br)cc1C1C=C(c2cccnc2)Nc2ncnn21 (configuration not stated) | > 100 µM (inactive) | –
Cc1ccc(C(=O)c2c(C)oc3c2C(=O)C(=O)c2ccccc2-3)cc1 | – | 4.32
CCc1oc2ccccc2c1C(=O)c1cc(Br)c(O)c(Br)c1 | – | 4.31
Cc1cc(O)c(/C=N/Nc2ccc(Cl)cc2)c(=O)o1 | – | 5.23
Cc1ccc(C)c(/C=C/C(=O)c2ccccc(=O)c2O)c1 | – | 5.19
